Reference: patent US20240300975A1, “DIMETHYL-SUBSTITUTED THIAZOLOLACTAM COMPOUND AND USE THEREOF” (D3 Bio (Wuxi) Co., Ltd., priority 2021, published 2024)

How the values were obtained:
In vivo PK study in mice = conditions: female BALB/c mice
Excerpt: Female BALB/c mice were used as assay animals to determine the blood concentration of the compound and evaluate the pharmacokinetic behavior after a single administration.
Four healthy adult female BALB/c mice were selected, wherein 2 mice were in an intravenous injection group and 2 mice were in an oral group. The vehicle in the intravenous injection group was 5% DMSO+95% (20% HP-β-CD). The compound to be assayed was mixed with an appropriate amount of vehicle for intravenous injection, vortexed and sonicated to prepare a clear solution of 0.5 mg/mL. The clear solution was filtered by a microporous membrane, and then ready for use. The vehicle in the oral group was 5% DMSO+95% (20% HP-β-CD). The compound to be assayed was mixed with the vehicle, vortexed and sonicated to prepare a solution of 0.3 mg/mL. Mice were administered 1 mg/kg intravenously or 3 mg/kg orally, and then whole blood was collected for a certain period. Plasma was prepared. The drug concentration was analyzed by LC-MS/MS method, and the pharmacokinetic parameters were calculated by Phoenix WinNonlin software (Pharsight, USA).

monkey plasma albumin = assay: Plasma protein binding (PPB), monkey plasma; format: in vitro ADME; conditions: ultracentrifugation, 37° C., 4 h
Procedure: (§1) The binding degree of the assay compound to human/mouse/rat/canine/monkey plasma albumin was studied.
(§2) • 1) Matrix preparation: on the day of the assay, plasma was thawed in cold water and centrifuged at 3220 rpm for 5 min to remove all clots. The pH of the resulting plasma was measured and adjusted to 7.4±0.1 using 1% phosphoric acid or 1N sodium hydroxide as needed. • 2) Dilution procedure for the assay compound: the assay compound was dissolved in dimethyl sulfoxide (DMSO) to prepare stock solutions with concentrations of 10 mM and 2 mM, respectively. A 40 μM working solution was prepared by diluting 2 μL of stock solution (2 mM) with 98 μL of DMSO. A 400 μM working solution of the control compound was prepared by diluting 10 μL of stock solution with 240 μL of DMSO. The working solution of the compound (5 μL) was mixed well with a blank matrix (995 μL) at a ratio of 1:200 to prepare a loading matrix.
(§3) • a) An equal volume of 30 μL of loading matrix (n=2) was transferred to a sample collection plate to prepare a time 0 (TO) sample for residue determination. The sample was immediately matched with the corresponding blank buffer to a final volume of 60 μL, and the volume ratio of plasma to buffer in each well was 1:1. […] The mixture was centrifuged at 4000 rpm for 20 min and 100 μL of supernatant from each sample was analyzed by LC-MS/MS.

ERK1 = ERK1 (Homo sapiens (Human), UniProt P27361); assay: In vitro ERK1 kinase activity assay (33P-ATP, filter-binding); format: biochemical
Sequence of ERK1 (P27361 whole entry): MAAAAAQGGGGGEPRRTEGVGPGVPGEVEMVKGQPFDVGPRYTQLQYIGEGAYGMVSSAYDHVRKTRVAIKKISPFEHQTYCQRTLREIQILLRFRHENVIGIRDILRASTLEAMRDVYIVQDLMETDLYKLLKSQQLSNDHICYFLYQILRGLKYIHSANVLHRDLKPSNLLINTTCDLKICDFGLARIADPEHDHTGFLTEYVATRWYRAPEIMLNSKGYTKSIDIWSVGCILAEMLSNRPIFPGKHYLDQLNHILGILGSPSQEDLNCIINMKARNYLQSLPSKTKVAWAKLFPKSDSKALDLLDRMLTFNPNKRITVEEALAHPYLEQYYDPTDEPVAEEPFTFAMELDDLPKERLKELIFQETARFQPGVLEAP
Procedure: The ability of compounds to inhibit ERK1 and ERK2 kinase activity was measured.
20 mM Hepes (pH 7.5), 10 mM MgCl2, 1 mM ethylenebis(oxyethylenenitrilo)tetraacetic acid (EGTA), 0.02% Brij35, 0.02 mg/mL bovine serum albumin (BSA), 0.1 mM Na3VO4, 2 mM dithiothreitol (DTT), 1% DMSO.
The assay compound was dissolved in 100% DMSO to prepare a stock solution of specific concentration. The compound was serially diluted in DMSO solution using Integra Viaflo Assist smart pipette.
• a) The substrate MBP was prepared in freshly prepared reaction buffer; • b) ERK1 (or ERK2) kinase was added to the above-mentioned MBP solution and mixed gently; • c) The compound dissolved in 100% DMSO was added to the kinase reaction system using ultrasound technology (Echo550; nanoliter range), and the mixture was incubated at room temperature for 20 minutes; • d)^33P-ATP (specific concentration of […]) was added to the reaction system, and the reaction was started at this time; • e) The mixture was incubated at room temperature for 2 hours; • f) The amount of radioactivity was detected by filter-binding method; • g) ERK1 (or ERK2) kinase activity was calculated as the ratio of the remaining kinase activity in the assay sample to the kinase activity of the control group (treated by DMSO).
Curve was fitted using Prism (GraphPad software) and IC50 values were calculated.

mouse plasma albumin = assay: Plasma protein binding (PPB), mouse plasma; format: in vitro ADME; conditions: ultracentrifugation, 37° C., 4 h
Procedure: as §1, §2, §3

rat plasma albumin = assay: Plasma protein binding (PPB), rat plasma; format: in vitro ADME; conditions: ultracentrifugation, 37° C., 4 h
Procedure: as §1, §2, §3

human plasma albumin = assay: Plasma protein binding (PPB), human plasma; format: in vitro ADME; conditions: ultracentrifugation, 37° C., 4 h
Procedure: as §1, §2, §3

[1] = In vivo PK study in beagle dogs; conditions: male beagle dogs
Procedure: Male beagle dogs were used as assay animals. After a single administration, the plasma concentration of the compound was measured and the pharmacokinetic behavior was evaluated.
Five healthy adult male beagle dogs were selected, wherein 2 were in an intravenous injection group, and 3 were in an oral group. The vehicle in the intravenous injection group was 5% DMSO+95% (20% HP-β-CD). The compound to be assayed was mixed with an appropriate amount of vehicle for intravenous injection, and dissolved with stirring to prepare a clear solution of 0.4 mg/mL. The clear solution was filtered by a microporous membrane, and then ready for use. The vehicle in the oral group was 5% DMSO+95% (20% HP-β-CD). The compound to be assayed was mixed with the vehicle, and dissolved with stirring to prepare a solution of 0.3 mg/mL. Cynomolgus monkeys were administered 1 mg/kg intravenously or 3 mg/kg orally, and then whole blood was collected for a certain period. Plasma was prepared. The drug concentration was analyzed by LC-MS/MS method, and the pharmacokinetic parameters were calculated by Phoenix WinNonlin software (Pharsight, USA).

Structure (SMILES): Cc1cccc(CN2C(=O)c3nc(-c4nc(Nc5ccnn5C)ncc4C)sc3C2(C)C)n1 [WX001]
- Oral DNAUC (AUCPO/Dose) (In vivo PK study in mice; 3 mg/kg orally): 787.18 nM · h/mpk
- clearance (In vivo PK study in mice; mouse, plasma, iv, 1 mg/kg intravenously): 27.5 mL/min/kg
- Vd (In vivo PK study in mice; mouse, plasma, iv, 1 mg/kg intravenously, read-out: Vdss): 1.6 L/kg
- bioavailability (In vivo PK study in mice; mouse, plasma, oral, 1 mg/kg intravenously / 3 mg/kg orally, read-out: F % (oral bioavailability)): 62%
- half-life (In vivo PK study in mice; mouse, plasma, single administration): 77.4 min
- Cmax (In vivo PK study in mice; mouse, po, 3 mg/kg orally, plasma): 2120 nM
- Plasma protein binding rate (unbound %) (monkey plasma albumin): 2.6%
- IC50 (ERK1): 1.2 nM
- Plasma protein binding rate (unbound %) (mouse plasma albumin): 7.2%
- Plasma protein binding rate (unbound %) (rat plasma albumin): 3.8%
- Plasma protein binding rate (unbound %) (human plasma albumin): 6.1%
- clearance ([1]; dog, plasma, iv, 1 mg/kg intravenously): 19 mL/min/kg
- Vd ([1]; dog, plasma, iv, 1 mg/kg intravenously, read-out: Vdss): 1.94 L/kg
- bioavailability ([1]; dog, plasma, oral, 1 mg/kg intravenously / 3 mg/kg orally, read-out: F % (oral bioavailability)): 52%
- half-life ([1]; dog, plasma, single administration): 65.4 min
- Cmax ([1]; dog, po, 3 mg/kg orally, plasma): 1230 nM
- Oral DNAUC (AUCPO/Dose) ([1]; 3 mg/kg orally): 1099.27 nM · h/mpk
